Measurements taken from ChEMBL document CHEMBL4842375, “Discovery of a Potent Glutathione Peroxidase 4 Inhibitor as a Selective Ferroptosis Inducer” (J Med Chem, 2021).
Calls of active or inactive are those of the source. The rule behind the calls is not given here.

Tests used:
[1] = target: T1, Phospholipid hydroperoxide glutathione peroxidase GPX4 (Homo sapiens) (UniProt P36969); experiment: Inhibition of GPX4 in mouse 4T1 cells assessed as decrease in intracellular GPX4 activity at 5 uM after 6 hrs; type: cell-based
T1 sequence (whole entry): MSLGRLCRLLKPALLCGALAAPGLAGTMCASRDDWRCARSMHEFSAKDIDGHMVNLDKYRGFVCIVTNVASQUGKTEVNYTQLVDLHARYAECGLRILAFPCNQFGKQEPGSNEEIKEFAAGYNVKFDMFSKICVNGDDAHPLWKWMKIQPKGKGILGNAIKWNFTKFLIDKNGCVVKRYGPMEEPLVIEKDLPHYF

4T1 [2] = experiment: Antitumor activity against mouse 4T1 cells xenografted in BALB/c mouse assessed as tumor growth inhibition at 30 mg/kg, iv administered every two days for total 5 times and monitered every two days by electronic caliper method; type: functional; settings: 4T1, iv, 48 h, read-out: TGI
4T1 [3] = experiment: Induction of intracellular ROS generation in mouse 4T1 cells at 2.5 uM incubated for 6 hrs in presence of Fer-1 by DCFH-DA staining based flow cytometric analysis; type: functional, cell-based
[4] = Selectivity index, ratio of IC50 for cytotoxicity against human HT-1080 cells in presence of Fer-1 to IC50 for cytotoxicity against human HT-1080 cells; type: functional
4T1 [5] = experiment: Antitumor activity against mouse 4T1 cells xenografted in BALB/c mouse assessed as tumor growth inhibition at 15 mg/kg, iv administered every two days for total 5 times and monitered every two days by electronic caliper method; type: functional; settings: 4T1, iv, 48 h, read-out: TGI
4T1 [6] = experiment: Induction of LPO accumulation in mouse 4T1 cells at 2.5 uM incubated for 6 hrs by C11-BODIPY staining based flow cytometric analysis; type: functional, cell-based
4T1 [7] = experiment: Induction of ferroptosis in mouse 4T1 cells assessed as increase in mitochondrial membrane density at 5 uM incubated for 6 hrs by TEM analysis; type: functional, cell-based
4T1 [8] = experiment: Induction of intracellular ROS generation in mouse 4T1 cells at 2.5 uM incubated for 6 hrs by DCFH-DA staining based confocal laser scanning microscopic analysis; type: functional, cell-based
4T1 [9] = experiment: Induction of LPO accumulation in mouse 4T1 cells assessed as increase in MDA level at 2.5 uM incubated for 6 hrs; type: functional, cell-based
4T1 [10] = experiment: Induction of intracellular ROS generation in mouse 4T1 cells at 2.5 uM incubated for 6 hrs by DCFH-DA staining based flow cytometric analysis; type: functional, cell-based
4T1 [11] = experiment: Induction of ferroptosis in mouse 4T1 cells assessed as reversal of cytotoxicity after 48 hrs in presence of glutathione by MTT assay; type: functional, cell-based
4T1 [12] = experiment: Induction of ferroptosis in mouse 4T1 cells assessed as ruptured mitochondria at 5 uM incubated for 6 hrs by TEM analysis; type: functional
4T1 [13] = experiment: Induction of ferroptosis in mouse 4T1 cells assessed as reduction in GSH levels at 5 uM; type: functional, cell-based
4T1 [14] = experiment: Induction of ferroptosis in mouse 4T1 cells assessed as reversal of cytotoxicity after 48 hrs in presence of NAC by MTT assay; type: functional, cell-based
4T1 [15] = experiment: Induction of LPO accumulation in mouse 4T1 cells at 2.5 uM incubated for 6 hrs in presence of Fer-1 by C11-BODIPY staining based flow cytometric analysis; type: functional, cell-based
MCF7 = experiment: Cytotoxicity against human MCF7 cells assessed as reduction in cell viability incubated for 48 hrs by MTT assay; type: functional, cell-based; settings: MCF7, 48 h
[16] = Toxicity in BALB/C mouse xenografted with mouse 4T1 cells assessed as change in biochemical indexes at 15 to 30 mg/kg, iv administered every two days for total 5 times and monitered every two days; type: organism-based; settings: in vivo, dose 15-30 mg/kg
[17] = Stability of compound in glutathione after 12 hrs by HPLC analysis; type: physicochemical
4T1 [18] = experiment: Cytotoxicity against mouse 4T1 cells assessed as reduction in cell viability incubated for 48 hrs by MTT assay; type: functional, cell-based; settings: 4T1, 48 h
HT-1080 [19] = experiment: Cytotoxicity against human HT-1080 cells assessed as reduction in cell viability incubated for 48 hrs in presence of Fer-1 by MTT assay; type: functional, cell-based; settings: HT-1080, 48 h
[20] = Toxicity in BALB/C mouse xenografted with mouse 4T1 cells assessed as change in body weight at 15 to 30 mg/kg, iv administered every two days for total 5 times and monitered every two days; type: organism-based; settings: in vivo, dose 15-30 mg/kg
4T1 [21] = experiment: Antitumor activity against mouse 4T1 cells xenografted in iv dosed BALB/c mouse assessed as tumor growth inhibition administered every two days for total 5 times and monitered every two days by electronic caliper method; type: functional, organism-based; settings: dose 15-30 mg/kg
4T1 [22] = experiment: Effect on intracellular GSH level in mouse 4T1 cells assessed as reduction in GSH level; type: functional, cell-based
4T1 [23] = experiment: Induction of LPO accumulation in mouse 4T1 cells at 2.5 uM incubated for 6 hrs by C11-BODIPY staining based confocal laser scanning microscopic analysis; type: functional, cell-based
[24] = Toxicity in BALB/C mouse xenografted with mouse 4T1 cells assessed as change in morphology of tissues and cells at 15 to 30 mg/kg, iv administered every two days for total 5 times and monitered every two days; type: organism-based; settings: in vivo, dose 15-30 mg/kg
HT-1080 [25] = experiment: Cytotoxicity against human HT-1080 cells assessed as reduction in cell viability incubated for 48 hrs by MTT assay; type: functional, cell-based; settings: HT-1080, 48 h
4T1 [26] = experiment: Induction of LPO accumulation in mouse 4T1 cells at 2.5 uM incubated for 6 hrs in presence of Fer-1 by C11-BODIPY staining based confocal laser scanning microscopic analysis; type: functional, cell-based
4T1 [27] = experiment: Induction of ferroptosis in mouse 4T1 cells assessed as reduction in mitochondrial cristae at 5 uM incubated for 6 hrs by TEM analysis; type: functional, cell-based
4T1 [28] = experiment: Induction of intracellular ROS generation in mouse 4T1 cells at 2.5 uM incubated for 6 hrs in presence of Fer-1 by DCFH-DA staining based confocal laser scanning microscopic analysis; type: functional, cell-based

O=C(NCCc1ccccc1)C(c1csc2ccccc12)N(C(=O)CCl)c1ccc(-c2cnco2)cc1 (centres undefined)
inhibition [1]: 11.8% | inhibition in vivo at 30 mg/kg (4T1 [2]): 55.1% | Activity (4T1 [3]): inactive | Ratio IC50 [4]: 31.5 | inhibition in vivo at 15 mg/kg (4T1 [5]): 33.2% | Activity (4T1 [6]): Active | Activity (4T1 [7]): Active | Activity (4T1 [8]): Active | Activity (4T1 [9]): Active | Activity (4T1 [10]): Active | Activity (4T1 [11]): Active | Activity (4T1 [12]): Active | Activity (4T1 [13]): Active | Activity (4T1 [14]): Active | Activity (4T1 [15]): inactive | IC50 (MCF7): 6.9 µM | Activity [16]: Non-Toxic | Stabilty [17]: Stable | IC50 (4T1 [18]): 0.78 µM | IC50 (HT-1080 [19]): 4.73 µM | Activity [20]: Non-Toxic | Activity (4T1 [21]): Dose-Dependent Effect | Activity (4T1 [22]): inactive | Activity (4T1 [23]): Active | Activity [24]: Non-Toxic | IC50 (HT-1080 [25]): 0.15 µM | Activity (4T1 [26]): inactive | Activity (4T1 [27]): Active | Activity (4T1 [28]): inactive
